# In PubChem BioAssay (NCI):
#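 All cell lines were grown in 96-well plates and treated with compound for 48 hours. The concentration for 50% growth inhibition is given as GI50. TGI: total growth inhibition.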
# Assays:
# Assay in all cases: NCI tumour cell line growth inhibition, 48 h
# SK-MEL-2 melanoma = tested on: SK-MEL-2 melanoma
# SF-539 CNS = tested on: SF-539 CNS
# BT-549 breast = tested on: BT-549 breast
# OVCAR-5 ovarian = tested on: OVCAR-5 ovarian
# RXF 393 renal = tested on: RXF 393 renal
# UACC-62 melanoma = tested on: UACC-62 melanoma
# NCI-H460 lung = tested on: NCI-H460 lung
# LOX IMVI melanoma = tested on: LOX IMVI melanoma
# CAKI-1 renal = tested on: CAKI-1 renal
# NCI-H522 lung = tested on: NCI-H522 lung
# IGROV1 ovarian = tested on: IGROV1 ovarian
# NCI-H23 lung = tested on: NCI-H23 lung
# HCC-2998 colon = tested on: HCC-2998 colon
# NCI/ADR-RES ovarian = tested on: NCI/ADR-RES ovarian
# U251 CNS = tested on: U251 CNS
# OVCAR-4 ovarian = tested on: OVCAR-4 ovarian
# HL-60(TB) leukemia = tested on: HL-60(TB) leukemia
# OVCAR-8 ovarian = tested on: OVCAR-8 ovarian
# SF-295 CNS = tested on: SF-295 CNS
# ACHN renal = tested on: ACHN renal
# SF-268 CNS = tested on: SF-268 CNS
# UACC-257 melanoma = tested on: UACC-257 melanoma
# MCF7 breast = tested on: MCF7 breast
# TK-10 renal = tested on: TK-10 renal
# SNB-19 CNS = tested on: SNB-19 CNS
# PC-3 prostate = tested on: PC-3 prostate
# DU-145 prostate = tested on: DU-145 prostate
# KM12 colon = tested on: KM12 colon
# HCT-116 colon = tested on: HCT-116 colon
# MDA-MB-435 = tested on: MDA-MB-435
# RPMI-8226 leukemia = tested on: RPMI-8226 leukemia
# K-562 leukemia = tested on: K-562 leukemia
# MALME-3M melanoma = tested on: MALME-3M melanoma
# MOLT-4 leukemia = tested on: MOLT-4 leukemia
# COLO 205 colon = tested on: COLO 205 colon
# 786-0 renal = tested on: 786-0 renal
# A549 NSCLC = tested on: A549 NSCLC
# OVCAR-3 ovarian = tested on: OVCAR-3 ovarian
# SK-MEL-28 melanoma = tested on: SK-MEL-28 melanoma
# SK-OV-3 ovarian = tested on: SK-OV-3 ovarian
# UO-31 renal = tested on: UO-31 renal
# EKVX NSCLC = tested on: EKVX NSCLC
# HOP-62 NSCLC = tested on: HOP-62 NSCLC
# T-47D breast = tested on: T-47D breast
# HT29 colon = tested on: HT29 colon
# M14 melanoma = tested on: M14 melanoma
# HCT-15 colon = tested on: HCT-15 colon
# SR leukemia = tested on: SR leukemia
structure (smiles),measurement,setting,value
c1cc2c(s1)SSSSS2,GI50,SK-MEL-2 melanoma,29.3 µM
same,TGI,SK-MEL-2 melanoma,> 100 µM
same,GI50,SF-539 CNS,21.7 µM
same,TGI,SF-539 CNS,39.6 µM
same,GI50,BT-549 breast,33.8 µM
same,TGI,BT-549 breast,85.9 µM
same,GI50,OVCAR-5 ovarian,21.1 µM
same,TGI,OVCAR-5 ovarian,36.6 µM
same,GI50,RXF 393 renal,18.4 µM
same,TGI,RXF 393 renal,41.5 µM
same,GI50,UACC-62 melanoma,13.8 µM
same,TGI,UACC-62 melanoma,28.1 µM
same,GI50,NCI-H460 lung,19.9 µM
same,TGI,NCI-H460 lung,42.2 µM
same,GI50,LOX IMVI melanoma,11.9 µM
same,TGI,LOX IMVI melanoma,40.3 µM
same,GI50,CAKI-1 renal,17.8 µM
same,TGI,CAKI-1 renal,36.6 µM
same,GI50,NCI-H522 lung,27.8 µM
same,TGI,NCI-H522 lung,81.8 µM
same,GI50,IGROV1 ovarian,19 µM
same,TGI,IGROV1 ovarian,43.1 µM
same,GI50,NCI-H23 lung,14.6 µM
same,TGI,NCI-H23 lung,30.7 µM
same,GI50,HCC-2998 colon,24 µM
same,TGI,HCC-2998 colon,39.9 µM
same,GI50,NCI/ADR-RES ovarian,22.8 µM
same,TGI,NCI/ADR-RES ovarian,46.4 µM
same,GI50,U251 CNS,17.6 µM
same,TGI,U251 CNS,39.6 µM
same,GI50,OVCAR-4 ovarian,24.2 µM
same,TGI,OVCAR-4 ovarian,46.9 µM
same,GI50,HL-60(TB) leukemia,11.8 µM
same,TGI,HL-60(TB) leukemia,> 100 µM
same,GI50,OVCAR-8 ovarian,36.3 µM
same,TGI,OVCAR-8 ovarian,> 100 µM
same,GI50,SF-295 CNS,18.3 µM
same,TGI,SF-295 CNS,36.9 µM
same,GI50,ACHN renal,15.5 µM
same,TGI,ACHN renal,31.7 µM
same,GI50,SF-268 CNS,19.1 µM
same,TGI,SF-268 CNS,38.6 µM
same,GI50,UACC-257 melanoma,35.2 µM
same,TGI,UACC-257 melanoma,> 100 µM
same,GI50,MCF7 breast,16.4 µM
same,TGI,MCF7 breast,35 µM
same,GI50,TK-10 renal,16.7 µM
same,TGI,TK-10 renal,33.5 µM
same,GI50,SNB-19 CNS,22.9 µM
same,TGI,SNB-19 CNS,47 µM
same,GI50,PC-3 prostate,16.5 µM
same,TGI,PC-3 prostate,39.6 µM
same,GI50,DU-145 prostate,17.1 µM
same,TGI,DU-145 prostate,34.1 µM
same,GI50,KM12 colon,19.3 µM
same,TGI,KM12 colon,38.1 µM
same,GI50,HCT-116 colon,9.06 µM
same,TGI,HCT-116 colon,21.2 µM
same,GI50,MDA-MB-435,18.9 µM
same,TGI,MDA-MB-435,35.8 µM
same,GI50,RPMI-8226 leukemia,7.06 µM
same,TGI,RPMI-8226 leukemia,29.4 µM
same,GI50,K-562 leukemia,16.1 µM
same,TGI,K-562 leukemia,> 100 µM
same,GI50,MALME-3M melanoma,17.1 µM
same,TGI,MALME-3M melanoma,40.2 µM
same,GI50,MOLT-4 leukemia,18.8 µM
same,TGI,MOLT-4 leukemia,> 100 µM
same,GI50,COLO 205 colon,17.6 µM
same,TGI,COLO 205 colon,46.6 µM
same,GI50,786-0 renal,14.9 µM
same,TGI,786-0 renal,29.1 µM
same,GI50,A549 NSCLC,31.8 µM
same,TGI,A549 NSCLC,> 100 µM
same,GI50,OVCAR-3 ovarian,18 µM
same,TGI,OVCAR-3 ovarian,34.5 µM
same,GI50,SK-MEL-28 melanoma,23 µM
same,TGI,SK-MEL-28 melanoma,41.9 µM
same,GI50,SK-OV-3 ovarian,34.5 µM
same,TGI,SK-OV-3 ovarian,72.7 µM
same,GI50,UO-31 renal,17.6 µM
same,TGI,UO-31 renal,33.7 µM
same,GI50,EKVX NSCLC,34.6 µM
same,TGI,EKVX NSCLC,68.2 µM
same,GI50,HOP-62 NSCLC,28.2 µM
same,TGI,HOP-62 NSCLC,55.3 µM
same,GI50,T-47D breast,13 µM
same,TGI,T-47D breast,32.4 µM
same,GI50,HT29 colon,23.3 µM
same,TGI,HT29 colon,41.4 µM
same,GI50,M14 melanoma,11.2 µM
same,TGI,M14 melanoma,29.4 µM
same,GI50,HCT-15 colon,15.8 µM
same,TGI,HCT-15 colon,85.9 µM
same,GI50,SR leukemia,3.17 µM
same,TGI,SR leukemia,22.8 µM
